Usually IC50 stands for the concentration that inhibits the measured activity by half.

For 1 molecule, IC50 results are on record in ChEMBL document CHEMBL3639062, “Triazolopyridazines as PAR1 inhibitors, production thereof, and use as medicaments” (2015).

The assay has as its target T1, Proteinase-activated receptor 1 (Homo sapiens, UniProt P25116).
T1 sequence (P25116 whole entry): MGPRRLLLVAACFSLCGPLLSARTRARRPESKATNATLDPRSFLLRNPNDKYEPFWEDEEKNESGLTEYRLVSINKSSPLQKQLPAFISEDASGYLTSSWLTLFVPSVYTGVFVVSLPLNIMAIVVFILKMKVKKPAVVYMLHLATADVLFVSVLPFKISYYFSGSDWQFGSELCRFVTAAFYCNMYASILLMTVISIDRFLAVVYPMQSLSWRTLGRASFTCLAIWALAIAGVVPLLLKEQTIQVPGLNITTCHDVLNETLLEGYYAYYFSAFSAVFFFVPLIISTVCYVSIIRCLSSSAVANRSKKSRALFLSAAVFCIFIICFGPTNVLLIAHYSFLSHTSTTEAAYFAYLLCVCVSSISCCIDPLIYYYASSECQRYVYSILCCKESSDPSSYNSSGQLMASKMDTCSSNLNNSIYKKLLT
In words: Binding Assay: The synthesized substances were examined in a PAR1 binding test. This tested whether the substances can inhibit the binding of a radioactively labeled PAR1 agonist known from the literature at the PAR1 receptor (Ho-Sam Ahn, Mol Pharm, 51:350-356, 1997). The human PAR1 receptor was expressed transiently in High Five insect cells. From these cells, after 48 hours, a membrane preparation was produced by standard methods, aliquoted into 10 mM Tris-HCl; 0.3 mM EDTA; 1 mM EGTA; 250 mM sucrose pH 7.5, and stored at -80 C.The substances were preincubated with the membrane at room temperature for 15 minutes, then the radioligand (ALA-(para-F-Phe)-Arg-ChA-homoArg-(3,4-3H-Tyr)-NH2; approx. 40 Ci/mMol) was added. The end concentration of the radioligand in the test buffer (50 mM Tris-HCl; 10 mM MgCl2; 1 mM EGTA; 0.1% BSA; 2% DMSO) was 20 nM, that of the membrane 1 mg/ml. After an incubation time of 60 minutes, 25 uL of the mixture were transferred to a 96-well MultiScreenHTS FB.

For `CCC(CC)Oc1nn2c(=N)n(CC(=O)c3cc(OC)cc(C(C)(C)C)c3)nc2cc1C`, the half-inhibitory concentration (IC50) came to 951 nM.
